A short description of one data set: in vitro. The note with it: human, Caco-2.
Data set [1] is described as follows: Aqueous equilibrium solubility of compound in pH 6.8 solution by high throughput assay. The data set is classed as physicochemical. Particulars: aqueous pH 6.8 solution.
Data set [2] can be described thus: Apparent permeability from basolateral to apical side in human Caco2 cells. The note with it: Caco-2. The data set is classed as ADME, cell-based. (Passage across Caco-2 layers is used to estimate intestinal permeability.)
Data set [3] in a line: Protein binding in human plasma. Type of data set: ADME, cell-free. Particulars: read-out: PPB (converted).
The target in a further data set is Cytochrome P450 2D6 (Homo sapiens, UniProt P10635).
In data set [4] the test system is Cynomolgus monkey. As to the kind of experiment: In vivo inhibition of complement factor D in cynomolgus monkey assessed as decrease in zymosan-induced AP activation by measuring soluble MAC complex deposition in serum administered as single dose via oral gavage measured at 4 to 24 hrs post dose. Type of data set: functional, organism-based. Particulars: Macaca fascicularis.

In data set [5] the target is Voltage-gated inwardly rectifying potassium channel KCNH2 (Homo sapiens, UniProt Q12809).
Data set [6] is described as follows: Drug uptake in Brown Norway rat posterior eye cup at 10 mg/kg, po administered as single dose via gavage after 6 hrs by LC-MS/MS analysis. Type of data set: ADME, organism-based. The note with it: read-out: Drug uptake.
Data set [7] relates to Cynomolgus monkey. Put plainly: In vivo inhibition of complement factor D in cynomolgus monkey assessed as decrease in zymosan-induced AP activation by measuring soluble MAC complex deposition in serum at 10 to 50 mg/kg, po administered as single dose via gavage measured 4 hrs post dose. The note with it: Macaca fascicularis. The data set is classed as functional, organism-based.

Data set [8] has as its system Cynomolgus monkey. As to the kind of experiment: In vivo inhibition of complement factor D in cynomolgus monkey assessed as serum concentration required to show complete reduction in zymosan-induced AP activation by measuring soluble MAC complex deposition at 10 to 50 mg/kg, po administered as single dose via gavage measured at 4 to 24 hrs post dose by LC-MS analysis. Type of data set: functional, Macaca fascicularis.

A further data set addresses Cytochrome P450 3A4 (Homo sapiens, UniProt P08684).
For a further data set, the system named is Lymphocyte. Put plainly: Genotoxicity in human primary lymphocytes by micronucleus test. The data set is classed as toxicity, cell-based.
The next data set has as its target Cytochrome P450 2C9 (Homo sapiens, UniProt P11712).
Data set [9] is described as follows: Drug uptake in Brown Norway rat neural retina at 10 mg/kg, po administered as single dose via gavage after 6 hrs by LC-MS/MS analysis. Type of data set: ADME, organism-based. Particulars: read-out: Drug uptake.
Data set [10] deals with Mus musculus. As to the kind of experiment: In vivo inhibition of complement activation in B6-Cfdtm1.1(CFD)Npa mouse assessed as decrease iC3b generation in eyes at 30 mg/kg, po administered via gavage treated up to 24 hrs prior to test and LPS challenge up to 7.5 hrs prior to test measured up to 12 hrs. Type of data set: functional, organism-based.
Data set [11] deals with Mus musculus. Put plainly: In vivo inhibition of complement activation in B6-Cfdtm1.1(CFD)Npa mouse assessed as decrease C3d generation in eyes at 30 mg/kg, po administered via gavage treated up to 24 hrs prior to test and LPS challenge up to 7.5 hrs prior to test measured up to 12 hrs. Type of data set: functional, organism-based.
A further data set concerns Salmonella typhimurium. As to the kind of experiment: Genotoxicity in Salmonella typhimurium by Ames test. The data set is classed as toxicity. Particulars: salmonella enterica subsp. enterica serovar typhimurium. A general note: In the Ames test, an excess of revertant colonies over the control signals mutagenicity.
The subject of data set [12] is Mus musculus. As to the kind of experiment: In vivo inhibition of Ba generation in plasma of B6-Cfdtm1.1(CFD)Npa mouse at 30 mg/kg, po administered via gavage treated up to 24 hrs prior to test and LPS challenge up to 7.5 hrs prior to test measured up to 8 hrs. The data set is classed as functional, organism-based.
A short description of data set [13]: Drug uptake in Brown Norway rat plasma at 10 mg/kg, po administered as single dose via gavage after 6 hrs by HPLC-MS/MS analysis. Type of data set: ADME, organism-based.
Data set [14] is described as follows: Cmax in Sprague-Dawley rat plasma at 10 mg/kg, po by LC-MS/MS analysis. Type of data set: ADME, organism-based. The arrangement: dose 10 mg/kg, route oral.
The nature of data set [15]: Oral bioavailability in Sprague-Dawley rat at 10 mg/kg by LC-MS/MS analysis. The data set is classed as ADME, organism-based. The note with it: in vivo.
A short description of data set [16]: Terminal half life in Sprague-Dawley rat at 1 mg/kg, iv administered as bolus dose by LC-MS/MS analysis. Type of data set: ADME, organism-based. The note with it: in vivo, read-out: beta t1/2 (converted).
Data set [17] in a line: AUC (0 to 8 hrs) in Sprague-Dawley rat plasma at 10 mg/kg, po by LC-MS/MS analysis. Also on record: dose 10 mg/kg, time < 8 hr, route oral. Type of data set: ADME, organism-based.
Data set [18] is described as follows: Clearance in Sprague-Dawley rat at 1 mg/kg, iv administered as bolus dose by LC-MS/MS analysis. The data set is classed as ADME, organism-based. Particulars: in vivo.
Another data set addresses Complement factor D (Homo sapiens, UniProt P00746). Put plainly: Inhibition of recombinant human complement factor D catalytic domain (G24 to A253 residues) expressed in expressed in Escherichia coli(Rosetta) using Z-Lys-thiobenzylester as substrate preincubated for 1 hr followed by substrate addition by 2,4-dinitrobenzenesulfonyl-2,7-desmethyl-fluorecein probe based spectrofluorimetric assay.

Each structure is given as a SMILES string. ≈ marks a conversion by molar mass, not a printed value. Calls of active or inactive are those of the source. The calls are words filed in the database; no cut-off is given here. Some results are limits rather than exact numbers.

As a reminder, the Papp A→B is the apparent permeability from the apical to the basolateral side of a cell layer. The solubility (thermodynamic) is the concentration in solution at equilibrium with solid. The term Papp B→A denotes the apparent permeability from the basolateral to the apical side of a cell layer. The molecule `NC(=O)n1cc(NC(=O)N2[C@@H]3C[C@@H]3C[C@H]2C(=O)Nc2cccc(OC(F)(F)F)c2)c2ccccc21` showed an apparent permeability from apical to basolateral (Papp A→B) in the data set “in vitro” of 4.5 ×10⁻⁶ cm/s. For the same molecule, in [1], the thermodynamic solubility is 77 µM (≈ 37.5 µg/mL). Also, the Papp B→A in [2] is 5.7 ×10⁻⁶ cm/s.
Molecule `NC(=O)n1cc(NC(=O)N2[C@@H]3C[C@@H]3C[C@H]2C(=O)Nc2cccc(OC(F)(F)F)c2F)c2ccccc21` had a Papp A→B in “in vitro” of 5.1 ×10⁻⁶ cm/s. Besides, the solubility (thermodynamic) in [1] was 10 µM (≈ 5.05 µg/mL). Besides, the apparent permeability from basolateral to apical (Papp B→A) in data set [2] amounted to 6.5 ×10⁻⁶ cm/s.
The like results for `NC(=O)n1cc(NC(=O)N2C[C@@H](O)C[C@H]2C(=O)Nc2cccc(OC(F)(F)F)c2)c2ccccc21` were, in that order, 0.77 ×10⁻⁶ cm/s, 23 µM (≈ 11.3 µg/mL) and 17 ×10⁻⁶ cm/s.
For `NC(=O)c1cn(CC(=O)N2[C@@H]3C[C@@H]3C[C@H]2C(=O)Nc2cccc(Br)n2)c2ccccc12`, the fraction unbound in data set [3] was 0.131.
In “in vitro”, `NC(=O)n1cc(NC(=O)N2[C@@H]3C[C@@H]3C[C@H]2C(=O)Nc2cccc(C(F)(F)F)c2F)c2ccccc21` gave an apical-to-basolateral permeability (Papp A→B) of 10 ×10⁻⁶ cm/s. Moreover, in [3], the fraction unbound is under 0.01. Moreover, the thermodynamic solubility in [1] is 46 µM (≈ 22.5 µg/mL). For the same molecule, in data set [2], the Papp B→A amounted to 7 ×10⁻⁶ cm/s.
In general, IC50 refers to the concentration needed to halve the response being measured. By EC50 is commonly meant the concentration that produces a half-maximal response. Consider `NC(=O)c1nn(CC(=O)N2[C@@H]3C[C@@H]3C[C@H]2C(=O)Nc2cccc(Br)n2)c2ccccc12`, for which the apparent permeability from apical to basolateral (Papp A→B) in “in vitro” worked out at 15.3 ×10⁻⁶ cm/s. For the same molecule, the fraction unbound in [3] was 0.08. Also, the half-maximal inhibitory concentration (IC50) at Cytochrome P450 2D6 was over 20 µM; in data set [5] it was over 30 µM; against Cytochrome P450 3A4 it was 17 µM; against Cytochrome P450 2C9, over 20 µM. Further, in the data set on Cynomolgus monkey [4], the EC50 amounted to 0.038 µM. In addition, the values for the concentration at 6 h in data set [6], in [9] and in [13] were 430 nM, 90 nM and 360 nM, respectively. The inhibition result with Cynomolgus monkey [7], in the data set on Mus musculus [10], with Mus musculus [11] and with Mus musculus [12] was “Active” each time. For the same molecule, the INH with Cynomolgus monkey [8] is over 0.5 µM. Further, the Activity entry in the data set on Lymphocyte and with Salmonella typhimurium was “Non-Toxic” in each case. The thermodynamic solubility in data set [1] came out at 170 µM (≈ 82.2 µg/mL). The basolateral-to-apical permeability (Papp B→A) in data set [2] amounted to 18.1 ×10⁻⁶ cm/s.
`NC(=O)n1cc(NC(=O)N2[C@@H]3C[C@@H]3C[C@H]2C(=O)Nc2cccc(Br)n2)c2ccccc21` gave a Papp A→B in the data set “in vitro” of 9.6 ×10⁻⁶ cm/s. For the same molecule, the fraction unbound in data set [3] is 0.036. Further, the thermodynamic solubility in [1] was determined as 57 µM (≈ 27.5 µg/mL). In addition, the basolateral-to-apical permeability (Papp B→A) in [2] amounted to 10.3 ×10⁻⁶ cm/s.
Regarding `NC(=O)n1cc(NC(=O)N2C[C@@H](N)C[C@H]2C(=O)Nc2cccc(OC(F)(F)F)c2)c2ccccc21`, in “in vitro”, the apical-to-basolateral permeability (Papp A→B) stood at 2.1 ×10⁻⁶ cm/s. Also, the solubility (thermodynamic) in data set [1] is 280 µM (≈ 137 µg/mL). The basolateral-to-apical permeability (Papp B→A) in data set [2] was 5.1 ×10⁻⁶ cm/s.
By Cmax is commonly meant the peak of the concentration-time curve. The term bioavailability denotes dose-corrected exposure relative to a reference, in per cent. The term AUC(0-t) denotes exposure summed from dosing to a finite time, without extrapolation to infinity. Usually clearance stands for the rate of elimination divided by the concentration. In data set [14], `NC(=O)n1cc(NC(=O)N2CCC[C@H]2C(=O)Nc2cccc(OC(F)(F)F)c2)c2ccccc21` showed a peak concentration (Cmax) of 1170 nM. The apical-to-basolateral permeability (Papp A→B) in the data set “in vitro” worked out at 6.1 ×10⁻⁶ cm/s. The molecule also yielded a bioavailability in data set [15] of 25%. For the same molecule, the Activity result in the data set on Lymphocyte and with Salmonella typhimurium was “Non-Toxic” in each case. In data set [16], the half-life is 1.4 h. Moreover, in data set [17], the area under the curve AUC(0-t) at 8 h turned out to be 4.99 µM·h. The molecule also showed a clearance in data set [18] of 21 mL/min/kg. The molecule further displayed a thermodynamic solubility in [1] of 17 µM (≈ 8.08 µg/mL). Besides, the Papp B→A in [2] worked out at 6.3 ×10⁻⁶ cm/s.
As for `Cn1cc(NC(=O)N2CCC[C@H]2C(=O)Nc2cccc(OC(F)(F)F)c2)c2ccccc21`, the half-maximal inhibitory concentration (IC50) at Complement factor D came to 20 µM.
As to `NC(=O)n1cc(NC(=O)N2C[C@H](F)C[C@H]2C(=O)Nc2cccc(OC(F)(F)F)c2)c2ccccc21`, the Papp A→B in the data set “in vitro” came to 0.75 ×10⁻⁶ cm/s. For the same molecule, in data set [1], the solubility (thermodynamic) came out at 7 µM (≈ 3.45 µg/mL). Also, the apparent permeability from basolateral to apical (Papp B→A) in data set [2] came out at 8 ×10⁻⁶ cm/s.
For `NC(=O)n1cc(NC(=O)N2[C@@H]3C[C@@H]3C[C@H]2C(=O)Nc2cccc(C(F)(F)F)n2)c2ccccc21`, in “in vitro”, the Papp A→B was 11.3 ×10⁻⁶ cm/s. Also, the fraction unbound in data set [3] was 0.048. Moreover, the thermodynamic solubility in data set [1] turned out to be 110 µM (≈ 52 µg/mL). In addition, the Papp B→A in [2] was found to be 14.2 ×10⁻⁶ cm/s.
